Data as given in patent publication US20110015065A1 (priority 2008, published 2011).

What was measured:
Pyricularia oryzae = format: cell-based; conditions: 10 days after inoculation
Phakopsora pachyrhizi = experiment: Curative control of soybean rust on soy beans caused by Phakopsora pachyrhizi (glasshouse); format: in vivo; conditions: comparative trial (Use example 7), untreated 100
Protocol: The active compounds were formulated separately or together as a stock solution comprising 25 mg of active compound which was made up to 10 ml using a mixture of acetone and/or dimethyl sulfoxide (DMSO) and the emulsifier Wettol EM 31 (wetting agent having emulsifying and dispersing action based on ethoxylated alkylphenols) in a volume ratio of solvent/emulsifier of 99 to 1. This solution was then made up to 100 ml using water. This stock solution was diluted with the solvent/emulsifier/water mixture described to the active compound concentration given below.
Leaves of pot-grown soybean seedlings were inoculated with spores of Phakopsora pachyrhizi. To ensure the success of the artificial inoculation, the plants were transferred to a humid chamber with a relative humidity of about 95% and 23 to 27° C. for 24 h. The next day the plants were sprayed to run-off with an aqueous suspension, containing the concentration of active ingredient or their mixture as described below. The plants were allowed to air-dry. Then the trial plants were cultivated for 14 days in a greenhouse chamber at 23-27° C. and a relative humidity between 60 and 80%. The extent of fungal attack on the leaves was visually assessed as % diseased leaf area.
The spray solutions were prepared as described for “Examples of the action against harmful fungi” (II. B).
The trial was conducted as described for Use example 3.

Cc1cnccc1CNS(=O)(=O)c1ccc(-c2ccc(Cl)cc2Cl)cc1
Growth (%) at 31 ppm (Pyricularia oryzae): 30%

COc1cc(CNS(=O)(=O)c2ccc(-c3ccc(C(F)(F)F)cc3C(F)(F)F)cc2)ccn1
Disease level (%) at 250 ppm (Phakopsora pachyrhizi): 100%

COc1cc(CNS(=O)(=O)c2ccc(-c3ccc(C(F)(F)F)cc3C(F)(F)F)cc2)sn1 [I-2]
Disease level (%) at 250 ppm (Phakopsora pachyrhizi): 5%

COc1cc(CNS(=O)(=O)c2ccc(-c3ccc(Cl)cc3Cl)cc2)sn1 [I-3]
Growth (%) at 2 ppm (Pyricularia oryzae): 46%

Cn1nccc1CNS(=O)(=O)c1ccc(-c2ccc(Cl)cc2Cl)cc1 [I-46]
Growth (%) at 31 ppm (Pyricularia oryzae): 16%

COc1cc(CNS(=O)(=O)c2ccc(-c3ccc(Cl)cc3Cl)cc2)ccn1 [Table C) I-76 according to WO06/097489]
Growth (%) at 2 ppm (Pyricularia oryzae): 68%
